Data published in patent US5556744A, “Methods and compositions for diagnosing and treating certain HIV infected patients” (The Trustees of the University of Pennsylvania, priority 1994, dated 1996).

Legend:
[1] = test system: maternal HIV+ sera (antibodies); assay: RIA / ELISA binding of maternal HIV+ sera to gp120 and gp41 peptides (Example 3); parameters: species or system human
Method in brief: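 Maternal sera, diluted 1:50 and 1:500, were bound overnight at 4°C to peptides immobilized at 10 μg/ml (pH 9.6 carbonate) and blocked with 1% BSA. Read-out was ¹²⁵I-labelled anti-human IgG counts or HRP-TMB OD450. Signal with peptide minus without was expressed relative to seronegative serum.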

[2] = test system: maternal sera (antibodies); assay: ELISA peptide-binding of maternal sera (Example 6); parameters: species or system human; details: for Number of Non-Transmitters which bound to peptide / Percent of Non-Transmitters which bound to peptide: N = 12; for Number of Transmitters which bound to peptide / Percent of Transmitters which bound to peptide: N = 4
Method in brief: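 HIV-1 envelope peptides averaging 16 amino acids, covering external and transmembrane glycoprotein, were probed by ELISA. Third-trimester maternal sera, classed as transmitter or non-transmitter by child diagnosis, were each run on at least 40 peptides. Values give percent of sera binding a peptide.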

[3] = Serum No. 1, Non-Transmission Group
[4] = Serum No. 2, Non-Transmission Group
[5] = Serum No. 3, Non-Transmission Group
[6] = Serum No. 4, Transmission Group
[7] = Serum No. 5, Transmission Group
[8] = Serum No. 6, Non-Transmission Group
[9] = Serum No. 7, Non-Transmission Group
[10] = Serum No. 8, Non-Transmission Group
[11] = Serum No. 9, Non-Transmission Group
[12] = Serum No. 10, Transmission Group
[13] = Serum No. 11, Non-Transmission Group
[14] = Serum No. 12, Non-Transmission Group
[15] = Serum No. 13, Transmission Group
[16] = Serum No. 14, Transmission Group
[17] = Serum No. 15, Transmission Group
[18] = Serum No. 16, Non-Transmission Group
[19] = Serum No. 17, Non-Transmission Group
[20] = Serum No. 18, Non-Transmission Group
[21] = Serum No. 19, Transmission Group
[22] = Serum No. 20, Non-Transmission Group

For RKSIGIQRGPGR [Peptide 1029-33], the “Percentage of sera samples demonstrating binding to peptide, non-transmitter” value ([1]; Non-transmitter group, n = 13) was 53.8%, the “Binding of maternal HIV+ serum to peptide (sera/NHS ratio)” value (from here on “Binding … (sera/NHS ratio)”) [1, 3] was “+ (which value is between 2 to 3)” and the “Binding … (sera/NHS ratio)” value [1, 4] was “++ (which value is greater than 3)”. For the same substance, the “Binding … (sera/NHS ratio)” value [1, 5] was “+ (which value is between 2 to 3)”, the “Binding … (sera/NHS ratio)” value [1, 6] was “- (specific OD450 or cpm of sera sample binding to peptide divided by the specific OD450 or cpm of NHS sample binding to peptide, which value is less than 2)” and the “Binding … (sera/NHS ratio)” value [1, 7] was “+ (which value is between 2 to 3)”. The “Binding … (sera/NHS ratio)” value [1, 8] was “- (specific OD450 or cpm of sera sample binding to peptide divided by the specific OD450 or cpm of NHS sample binding to peptide, which value is less than 2)”, the “Binding … (sera/NHS ratio)” value [1, 9] was “- (specific OD450 or cpm of sera sample binding to peptide divided by the specific OD450 or cpm of NHS sample binding to peptide, which value is less than 2)” and the “Binding … (sera/NHS ratio)” value [1, 10] was “- (specific OD450 or cpm of sera sample binding to peptide divided by the specific OD450 or cpm of NHS sample binding to peptide, which value is less than 2)”. The “Binding … (sera/NHS ratio)” value [1, 11] was “- (specific OD450 or cpm of sera sample binding to peptide divided by the specific OD450 or cpm of NHS sample binding to peptide, which value is less than 2)”, the “Binding … (sera/NHS ratio)” value [1, 12] was “- (specific OD450 or cpm of sera sample binding to peptide divided by the specific OD450 or cpm of NHS sample binding to peptide, which value is less than 2)” and the “Binding … (sera/NHS ratio)” value [1, 13] was “+ (which value is between 2 to 3)”. The “Binding … (sera/NHS ratio)” value [1, 14] was “+ (which value is between 2 to 3)”, the “Binding … (sera/NHS ratio)” value [1, 15] was “+ (which value is between 2 to 3)” and the “Binding … (sera/NHS ratio)” value [1, 16] was “- (specific OD450 or cpm of sera sample binding to peptide divided by the specific OD450 or cpm of NHS sample binding to peptide, which value is less than 2)”. For the same substance, the “Binding … (sera/NHS ratio)” value [1, 17] was “+ (which value is between 2 to 3)”, the “Binding … (sera/NHS ratio)” value [1, 18] was “- (specific OD450 or cpm of sera sample binding to peptide divided by the specific OD450 or cpm of NHS sample binding to peptide, which value is less than 2)” and the “Binding … (sera/NHS ratio)” value [1, 19] was “+ (which value is between 2 to 3)”. For the same substance, the “Binding … (sera/NHS ratio)” value [1, 20] was “- (specific OD450 or cpm of sera sample binding to peptide divided by the specific OD450 or cpm of NHS sample binding to peptide, which value is less than 2)”, the “Binding … (sera/NHS ratio)” value [1, 21] was “- (specific OD450 or cpm of sera sample binding to peptide divided by the specific OD450 or cpm of NHS sample binding to peptide, which value is less than 2)” and the “Binding … (sera/NHS ratio)” value [1, 22] was “++ (which value is greater than 3)”. The “Percentage of sera samples demonstrating binding to peptide, transmitter” value ([1]; Transmitter / transmission group, n = 7) was 42.9%, the “Percent of the maternal serum samples that bound to the peptide” value ([1]; all 20 samples) was 50% and the “Number of Non-Transmitters which bound to peptide” value [2] was 0. The “Percent of Non-Transmitters which bound to peptide” value [2] was 0%, the “Number of Transmitters which bound to peptide” value [2] was 0 and the “Percent of Transmitters which bound to peptide” value [2] was 0%.
For “CIVQQQNNLLRAI-EAQQHLLQLTVWGIKQL (CIVQQQNNLLRAIEAQQHLLQLTVWGIKQL) [Peptide 560]”, the “Binding … (sera/NHS ratio)” value [1, 3] was “+ (which value is between 2 to 3)”, the “Binding … (sera/NHS ratio)” value [1, 4] was “- (specific OD450 or cpm of sera sample binding to peptide divided by the specific OD450 or cpm of NHS sample binding to peptide, which value is less than 2)” and the “Binding … (sera/NHS ratio)” value [1, 5] was “- (specific OD450 or cpm of sera sample binding to peptide divided by the specific OD450 or cpm of NHS sample binding to peptide, which value is less than 2)”. For the same substance, the “Binding … (sera/NHS ratio)” value [1, 6] was “- (specific OD450 or cpm of sera sample binding to peptide divided by the specific OD450 or cpm of NHS sample binding to peptide, which value is less than 2)”, the “Binding … (sera/NHS ratio)” value [1, 7] was “- (specific OD450 or cpm of sera sample binding to peptide divided by the specific OD450 or cpm of NHS sample binding to peptide, which value is less than 2)” and the “Binding … (sera/NHS ratio)” value [1, 8] was “- (specific OD450 or cpm of sera sample binding to peptide divided by the specific OD450 or cpm of NHS sample binding to peptide, which value is less than 2)”. The “Binding … (sera/NHS ratio)” value [1, 9] was “- (specific OD450 or cpm of sera sample binding to peptide divided by the specific OD450 or cpm of NHS sample binding to peptide, which value is less than 2)”, the “Binding … (sera/NHS ratio)” value [1, 10] was “- (specific OD450 or cpm of sera sample binding to peptide divided by the specific OD450 or cpm of NHS sample binding to peptide, which value is less than 2)” and the “Binding … (sera/NHS ratio)” value [1, 11] was “- (specific OD450 or cpm of sera sample binding to peptide divided by the specific OD450 or cpm of NHS sample binding to peptide, which value is less than 2)”. The “Binding … (sera/NHS ratio)” value [1, 12] was “- (specific OD450 or cpm of sera sample binding to peptide divided by the specific OD450 or cpm of NHS sample binding to peptide, which value is less than 2)”, the “Binding … (sera/NHS ratio)” value [1, 13] was “- (specific OD450 or cpm of sera sample binding to peptide divided by the specific OD450 or cpm of NHS sample binding to peptide, which value is less than 2)” and the “Binding … (sera/NHS ratio)” value [1, 14] was “- (specific OD450 or cpm of sera sample binding to peptide divided by the specific OD450 or cpm of NHS sample binding to peptide, which value is less than 2)”. For the same substance, the “Binding … (sera/NHS ratio)” value [1, 15] was “- (specific OD450 or cpm of sera sample binding to peptide divided by the specific OD450 or cpm of NHS sample binding to peptide, which value is less than 2)”, the “Binding … (sera/NHS ratio)” value [1, 16] was “- (specific OD450 or cpm of sera sample binding to peptide divided by the specific OD450 or cpm of NHS sample binding to peptide, which value is less than 2)” and the “Binding … (sera/NHS ratio)” value [1, 17] was “- (specific OD450 or cpm of sera sample binding to peptide divided by the specific OD450 or cpm of NHS sample binding to peptide, which value is less than 2)”. For the same substance, the “Binding … (sera/NHS ratio)” value [1, 18] was “- (specific OD450 or cpm of sera sample binding to peptide divided by the specific OD450 or cpm of NHS sample binding to peptide, which value is less than 2)”, the “Binding … (sera/NHS ratio)” value [1, 19] was “- (specific OD450 or cpm of sera sample binding to peptide divided by the specific OD450 or cpm of NHS sample binding to peptide, which value is less than 2)” and the “Binding … (sera/NHS ratio)” value [1, 20] was “- (specific OD450 or cpm of sera sample binding to peptide divided by the specific OD450 or cpm of NHS sample binding to peptide, which value is less than 2)”. For the same substance, the “Binding … (sera/NHS ratio)” value [1, 21] was “- (specific OD450 or cpm of sera sample binding to peptide divided by the specific OD450 or cpm of NHS sample binding to peptide, which value is less than 2)”, the “Binding … (sera/NHS ratio)” value [1, 22] was “- (specific OD450 or cpm of sera sample binding to peptide divided by the specific OD450 or cpm of NHS sample binding to peptide, which value is less than 2)” and the “Number of Non-Transmitters which bound to peptide” value [2] was 0. For the same substance, the “Percent of Non-Transmitters which bound to peptide” value [2] was 0%, the “Number of Transmitters which bound to peptide” value [2] was 0 and the “Percent of Transmitters which bound to peptide” value [2] was 0%.
